The text below walks through data of US20250361234A1 (NICO THERAPEUTICS, INC., priority 2022, published 2025).

In this test the target is T1, full-length SARM1 (FL-SARM1) (Homo sapiens, UniProt Q6SZW1).
T1 sequence (Q6SZW1 28-724): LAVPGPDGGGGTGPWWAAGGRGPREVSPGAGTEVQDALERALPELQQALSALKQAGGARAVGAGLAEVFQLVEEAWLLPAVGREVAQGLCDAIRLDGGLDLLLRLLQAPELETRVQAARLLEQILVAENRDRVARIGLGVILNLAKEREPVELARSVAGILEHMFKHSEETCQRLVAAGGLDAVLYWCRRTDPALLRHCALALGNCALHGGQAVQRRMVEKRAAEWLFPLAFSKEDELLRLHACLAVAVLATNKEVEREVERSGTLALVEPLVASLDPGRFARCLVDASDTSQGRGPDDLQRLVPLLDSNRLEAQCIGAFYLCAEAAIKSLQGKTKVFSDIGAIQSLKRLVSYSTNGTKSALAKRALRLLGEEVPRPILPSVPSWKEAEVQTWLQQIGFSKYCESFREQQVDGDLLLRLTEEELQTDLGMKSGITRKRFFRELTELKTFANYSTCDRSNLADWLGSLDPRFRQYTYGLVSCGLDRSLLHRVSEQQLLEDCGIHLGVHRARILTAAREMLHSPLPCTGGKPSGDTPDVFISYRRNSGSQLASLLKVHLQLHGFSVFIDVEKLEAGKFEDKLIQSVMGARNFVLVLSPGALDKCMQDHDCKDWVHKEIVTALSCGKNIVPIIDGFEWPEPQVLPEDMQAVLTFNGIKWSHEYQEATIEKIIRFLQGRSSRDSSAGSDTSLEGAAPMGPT
Description: FL-SARM1 cellular lysate assay (NAD/NADH-Glo readout of remaining NAD+). The note with it: SARM1 cellular lysate from transfected HEK293T cells, NAD+ and NMN, 11 point curve.
Description: Preparation of full-length SARM1 (FL-SARM1) lysate: HEK293T cells (ATCC: CRL-3216) were grown on 150 mm TC-treated dishes to 80-90% confluency in complete DMEM (Thermo Fisher: 11965175) supplemented with 10% HI-FBS (VWR: 10802-772), 1× Pen/Strep (Thermo Fisher: 15140122), 1× NEAA (Thermo Fisher: 1140050), 1× glutamax (Thermo Fisher: 35050061), and 1 mM sodium pyruvate (Thermo Fisher: 11360070)) at 37° C. and 5% CO2. One hour prior to transfection, the media was replaced with fresh, 37° C. complete DMEM (20 mL per one 150 mm dish) supplemented with additional 10 mM glucose (Alfa Aesar AAJ60067EQE). Per one 150 mm dish, 30 μg FL-SARM1 (SEQ. ID. 1; cloned in-house) plasmid was dissolved in 1 mL DMEM at ambient temperature and were mixed by inverting the tube 8-10 times. 90 μL of GenJet™ in vitro DNA transfection reagent (Ver2) was dissolved in 1 mL DMEM at ambient temperature and were mixed by inverting the tube 8-10 times. The plasmid and transfection agent solutions were combined, mixed by 8-10 inversions and incubated for 10 minutes at ambient temperature. 2 mL of this transfection mixture was added to each dish containing HEK293T cells as prepared above followed by a gentle mixing of 4-5 horizontal rotations. The dishes were incubated at 37° C. and 5% CO2 for 24 h. The dishes were removed from the incubator, the medium was aspirated and the cells were scraped off using cell scrapers in ice-cold 1× PBS (5 mL/dish, Thermo Fisher Scientific 10010023). The collected cells were centrifuged at 300 g for 5 minutes at 4° C. The supernatant was aspirated and the pellet was frozen at −80° C. until needed. The cell pellet from 30 dishes was dissolved in 30 mL 1× PBS supplemented with 4 tablets of Complete, Mini EDTA-free protease inhibitor cocktail at 4° C. This mixture was sonicated on ice for 10 minutes at 50% amplitude with a 1 second on/1 second off interval using a Model 120 sonicator (Thermo Fisher Scientific, FB120110). The lysate was centrifuged at 16000 g for 10 minutes at 4° C.
To a white 384-well Proxiplate (PerkinElmer, PE-6008280) was added 50 nL/well of a DMSO solution containing test compounds followed by 7.5 mL/well of a 0.067 mg/mL solution of SARM1 cellular lysate in reaction buffer (DPBS containing CHAPSO (0.1%) and fatty acid free BSA (0.032%)). The plate was centrifuged for 1 minute at 1000 RPM and then placed in an incubator at 23° C. for 15 minutes. To the wells were added 2.5 mL/well of a solution containing 40 mM NAD^+ and 4 mM NMN in reaction buffer. The plate was centrifuged for 1 min at 1000 RPM, the plate was sealed and placed in an incubator at 23° C. for 3.5 hours before adding 3.5 mL/well of NAD/NADH-Glo™ solution (preparation as described by Promega using the extended detection protocol). The plate was centrifuged for 1 minute at 1000 RPM and then incubated at 23° C. for 20 minutes. 1 mL/well of a 3.625 mM solution of menadione in DMSO was added and the plate was centrifuged for 1 minute at 1000 RPM. […] Percent inhibition was calculated as follows:
IC50 values were calculated from an 11 point curve using ½ log dilutions using a four-parameter logistic regression curve fit.

As a reminder, the IC50 is the concentration that inhibits the measured activity by half. The low end stands for greater potency in that assay, the high end for weaker potency in that assay. For `Cc1nnc([C@]23C[C@H](C)C[C@H](C2)N3C(=O)Nc2ccc(C)c(-c3cncc(F)c3)c2)o1` (single isomer, unassigned) [Example 128, cis-N-(3-(5-fluoropyridin-3-yl)-4-methylphenyl)-3-methyl-1-(5-methyl-1,3,4-oxadiazol-2-yl)-6-azabicyclo[3.1.1]heptane-6-carboxamide], the IC50 is 11.6 µM (Activity (μM)) and greater than 10 µM (Activity).

Take `COC(=O)[C@H]1C[C@@H]2C[C@H](C1)N2C(=O)Nc1ccc(C)c(-c2cncc(F)c2)c1` (single isomer, unassigned) [Example 12, trans-methyl 6-((3-(5-fluoropyridin-3-yl)-4-methylphenyl)carbamoyl)-6-azabicyclo[3.1.1]heptane-3-carboxylate]: the IC50 was 3.7 µM (Activity (μM)) and 1 to 10 µM (Activity).

Regarding `C[C@@H]1CC2C[C@H](C1)N2C(=O)Nc1ccc(C(F)(F)F)c(-c2cncc(F)c2)c1` (single isomer, unassigned) [Example 53, cis-N-(3-(5-fluoropyridin-3-yl)-4-(trifluoromethyl)phenyl)-3-methyl-6-azabicyclo[3.1.1]heptane-6-carboxamide], the IC50 is, setting by setting: (Activity (μM)) 0.06 µM; (Activity) 0.0001 to 1 µM.

In the case of `Cc1ccc(NC(=O)N2C3CCCC2C3)cc1-c1cncc(OC(F)(F)F)c1` [Example 35, N-(4-methyl-3-(5-(trifluoromethoxy)pyridin-3-yl)phenyl)-6-azabicyclo[3.1.1]heptane-6-carboxamide], the IC50 was 0.1 µM (Activity (μM)) and 0.0001 to 1 µM (Activity).

`COc1cncc(-c2cc(NC(=O)N3[C@@H]4C[C@@H](C)C[C@@]3(c3nnc(C)o3)C4)c(F)cc2C(F)(F)F)c1` (single isomer, unassigned) [Example 122, cis-N-(2-fluoro-5-(5-methoxypyridin-3-yl)-4-(trifluoromethyl)phenyl)-3-methyl-1-(5-methyl-1,3,4-oxadiazol-2-yl)-6-azabicyclo[3.1.1]heptane-6-carboxamide]: half-maximal inhibition (Activity (μM)) (IC50) required 10.7 µM and the IC50 (Activity) was greater than 10 µM.

In turn, `Cc1ccc(NC(=O)[C@H]2C[C@](C#N)(C3CC3)C2)cc1-c1cncc(F)c1` [Example 107, cis-3-cyano-3-cyclopropyl-N-[3-(5-fluoropyridin-3-yl)-4-methylphenyl]cyclobutane-1-carboxamide] had an IC50 (Activity (μM)) of 38.9 µM and an IC50 (Activity) greater than 10 µM.

For the molecule `Cc1ccc(NC(=O)N2C[C@@H]3C[C@H]2C[C@@H]3C#N)cc1-c1cncc(F)c1` (relative stereo) [Example 24, trans-5-cyano-N-(3-(5-fluoropyridin-3-yl)-4-methylphenyl)-2-azabicyclo[2.2.1]heptane-2-carboxamide], the IC50 by setting is: (Activity (μM)) 3.3 µM; (Activity) 1 to 10 µM.

Turning to `Cc1ccc(NC(=O)N2C3C[C@H]2C[C@]2(C3)CC2(F)F)cc1-c1cncc(F)c1` (stereo in doubt) [Example 10, trans-2′,2′-difluoro-N-(3-(5-fluoropyridin-3-yl)-4-methylphenyl)-6-azaspiro[bicyclo[3.1.1]heptane-3,1′-cyclopropane]-6-carboxamide], the IC50 was 0.3 µM (Activity (μM)) and 0.0001 to 1 µM (Activity).

For `Cc1ccc(NC(=O)OC2CCC2)cc1-c1cncc(F)c1` [Example 126, cyclobutyl (3-(5-fluoropyridin-3-yl)-4-methylphenyl)carbamate], the IC50 (Activity (μM)) worked out at 20.7 µM and the IC50 (Activity) is greater than 10 µM.

As for `COC(=O)[C@H]1CC2C[C@@H](C1)N2C(=O)Nc1ccc(C)c(-c2cncc(F)c2)c1` (single isomer, unassigned) [Example 13, cis-methyl 6-((3-(5-fluoropyridin-3-yl)-4-methylphenyl)carbamoyl)-6-azabicyclo[3.1.1]heptane-3-carboxylate], the half-inhibitory concentration (IC50) is, setting by setting: (Activity (μM)) 3.4 µM; (Activity) 1 to 10 µM.

Regarding `Cc1ccc(NC(=O)N2C3C[C@@H]2C[C@@](C)(C#N)C3)cc1-c1cncc(F)c1` (stereo in doubt) [Example 43, cis-3-cyano-N-(3-(5-fluoropyridin-3-yl)-4-methylphenyl)-3-methyl-6-azabicyclo[3.1.1]heptane-6-carboxamide], the IC50 reads like this: (Activity (μM)) 0.5 µM; (Activity) 0.0001 to 1 µM.

In the case of `COc1ccc(-c2cc(NC(=O)N3C4CCCC3C4)ccc2C)cn1` [Example 67, N-(3-(6-methoxypyridin-3-yl)-4-methylphenyl)-6-azabicyclo[3.1.1]heptane-6-carboxamide], the midpoint of inhibition (Activity (μM)), the IC50, lay at 0.4 µM and the IC50 (Activity) fell in the range of 0.0001 to 1 µM.

Molecule `Cc1ccc(NC(=O)N2C3CCCC2C3)cc1-c1ccnnc1` [Example 63] came in with an IC50 (Activity (μM)) of 25.9 µM and an IC50 (Activity) greater than 10 µM.

For `COC[C@H]1C2CCC[C@H]1N2C(=O)Nc1ccc(C)c(-c2cncc(F)c2)c1` [Example 44, N-trans-(3-(5-fluoropyridin-3-yl)-4-methylphenyl)-7-(methoxymethyl)-6-azabicyclo[3.1.1]heptane-6-carboxamide], the IC50 is 17.2 µM (Activity (μM)) and greater than 10 µM (Activity).

`CO[C@@H]1CC[C@H]2CC1N2C(=O)Nc1ccc(C)c(-c2cncc(F)c2)c1` [Example 7, trans-N-(3-(5-fluoropyridin-3-yl)-4-methylphenyl)-2-methoxy-6-azabicyclo[3.1.1]heptane-6-carboxamide]: the IC50 is, setting by setting: (Activity (μM)) 2 µM; (Activity) 1 to 10 µM.

As for `Cc1ccc(NC(=O)N2C3CC[C@H](C#N)[C@@H]2C3)cc1-c1cncc(F)c1` [Example 30, cis-2-cyano-N-(3-(5-fluoropyridin-3-yl)-4-methylphenyl)-6-azabicyclo[3.1.1]heptane-6-carboxamide], the IC50 is, setting by setting: (Activity (μM)) 5.5 µM; (Activity) 1 to 10 µM.

The molecule `Cc1ccc(NC(=O)N2C3CCCC2C3)cc1-c1cccnc1` [Example 86, N-(4-methyl-3-(pyridine-3-yl)phenyl)-6-azabicyclo[3.1.1]heptane-6-carboxamide] registered an IC50 (Activity (μM)) of 0.2 µM and an IC50 (Activity) of 0.0001 to 1 µM.

Turning to `COc1c(F)cncc1-c1cc(NC(=O)N2C3CCCC2C3)ccc1C` [Example 90, N-(3-(5-fluoro-4-methoxypyridin-3-yl)-4-methylphenyl)-6-azabicyclo[3.1.1]heptane-6-carboxamide], inhibition (Activity (μM)) was half-maximal at 1.9 µM (IC50) and the IC50 (Activity) was in the range of 1 to 10 µM.

`Cc1ccc(NC(=O)N2CCOc3cccc(C#N)c3C2)cc1-c1cncc(F)c1` [Example 81]: the IC50 is 5.6 µM (Activity (μM)) and 1 to 10 µM (Activity).

Take `Cc1ccc(NC(=O)N2C3CCCC2C3)cc1-c1cncc(Cl)c1` [Example 117, N-[3-(5-chloro-3-pyridyl)-4-methyl-phenyl]-6-azabicyclo[3.1.1]heptane-6-carboxamide]: the IC50 reads like this: (Activity (μM)) 0.03 µM; (Activity) 0.0001 to 1 µM.

`Cc1ccc(NC(=O)N2C[C@@H]3CC2C[C@H]3C#N)cc1-c1cncc(F)c1` [Example 16, cis-5-cyano-N-(3-(5-fluoropyridin-3-yl)-4-methylphenyl)-2-azabicyclo[2.2.1]heptane-2-carboxamide]: half-maximal inhibition (Activity (μM)) (IC50) required 41 µM and the IC50 (Activity) is greater than 10 µM.

On to `O=C(Nc1ccc(C2CC2)c(-c2cncc(F)c2)c1)N1C2CCCC1C2` [Example 66, N-(4-cyclopropyl-3-(5-fluoropyridin-3-yl)phenyl)-6-azabicyclo[3.1.1]heptane-6-carboxamide], for which the IC50 was 2 µM (Activity (μM)) and 1 to 10 µM (Activity).

Consider `Cc1ccc(NC(=O)N2C3CCCC2C3)cc1-c1cnccc1C#N` [Example 62, N-(3-(4-cyanopyridin-3-yl)-4-methylphenyl)-6-azabicyclo[3.1.1]heptane-6-carboxamide], for which the IC50 was 1.1 µM (Activity (μM)) and 1 to 10 µM (Activity).

Regarding `Cc1ccc(NC(=O)N2C3CC(=O)CC2C3)cc1-c1cncc(F)c1` [Example 38, N-(3-(5-fluoropyridin-3-yl)-4-methylphenyl)-3-oxo-6-azabicyclo[3.1.1]heptane-6-carboxamide], the IC50 runs as follows: (Activity (μM)) 2.3 µM; (Activity) 1 to 10 µM.

In turn, `O=C(Nc1ccc(C(F)(F)F)c(-c2cncc(F)c2)c1)N1C2CCCC1C2` [Example 75, N-(3-(5-fluoropyridin-3-yl)-4-(trifluoromethyl)phenyl)-6-azabicyclo[3.1.1]heptane-6-carboxamide] yielded an IC50 (Activity (μM)) of 1 µM and an IC50 (Activity) of 1 to 10 µM.

`Cc1nnc([C@]23C[C@H](C)C[C@H](C2)N3C(=O)Nc2cc(-c3cncc(F)c3)c(C(F)(F)F)cc2F)o1` (single isomer, unassigned) [Example 135, cis-N-[2-fluoro-5-(5-fluoro-3-pyridinyl)-4-(trifluoromethyl)phenyl]-3-methyl-1-(5-methyl-1,3,4-oxadiazol-2-yl)-6-azabicyclo[3.1.1]heptane-6-carboxamide]: the IC50 runs as follows: (Activity (μM)) 0.03 µM; (Activity) 0.0001 to 1 µM.

Take `Cc1ccc(NC(=O)N2C3CCC2COC3)cc1-c1cncc(F)c1` [Example 94, N-[3-(5-fluoropyridin-3-yl)-4-methylphenyl]-3-oxa-8-azabicyclo[3.2.1]octane-8-carboxamide]: the IC50 was 2.8 µM (Activity (μM)) and 1 to 10 µM (Activity).
